# Laboratory results as given in patent US7189383B2, “Radioactively labelled amino acid analogues, their preparation and use” (Mallinckrodt Inc., priority 2002, dated 2007).
# What was measured:
# [1] = tested on: RIM tumour (rhabdomyo-sarcoma); assay: In vivo evaluation of SPECT tracers in RIM tumour (rhabdomyo-sarcoma)-bearing rats; set-up: species or system rat
# From the text: In the research that led to the invention two new potential SPECT tracers, 2-^123I-tyrosine (2-^123I-Tyr) and 2-^123-I-phenylalanine, were developed.
# R1M tumour = assay: PET of R1M tumour bearing rat after intravenous injection; type: in vivo; details: 120 Mbq intravenously, FIG. 2
# From the text: FIG. 2: PET of R1M tumour bearing rat. The tumour is visible at the upper right, the pancreas in the middle and the bladder under. 120 Mbq L-2-^18F-methyl-phenylalanine was intravenously injected.
# In Vivo Rat Evaluation of L-2-18F-methyl-phenylalanine in a R1M Tumour Bearing Rat by Means of PET
# The latter is typical for rodent.
# [2] = target: T1, L-transport system 1 (LAT1) (Rattus norvegicus, UniProt Q63016); assay: Inhibition of L-3H-phenylalanine uptake in rat rhabdomyo-sarcoma (R1M) cells in vitro; type: cell-based
# T1 construct: endogenous in cells; host or cells: R1M rat rhabdomyosarcoma cells
# Experimental: FIG. 1: Inhibition of ^3H-Phe/Phe uptake in R1M cells in vitro by L-2-F-methyl-PHE. The common intercept proves that the inhibition is competitive and that L-2-F-methyl-Phe uses the same transport system as L-Phe.
# The affinity of L-2-F-methyl-phenylalanine for uptake by the L-transport system 1 (LAT1) in cancer cells (rat rhabdomyo-sarcoma cells) was determined by measuring the inhibition of the uptake of L-^3H-phenylalanine after 15 minutes incubation in HEPES buffer of pH 7.4 containing appropriate amounts of L-phenylalanine and of L-2-F-methyl-phenylalanine. The uptake was saturable and followed the typical Michaelis-Menten relation allowing to draw Lineweaver-Burk (FIG. 1) plots.
# R1M cells = assay: Preliminary uptake experiments in R1M cells in vitro; type: cell-based; details: buffer simulating in vivo conditions
# From the text: The inventors considered based on the results obtained with ^18F-FET and their own results with 2-^123I-Phe and 2-^123I-Tyr that the aromatic amino acid properties are conserved after substitution of an O-ethyl group and even in the presence of a voluminous iodine atom. This invention is thus based on the new approach to introduce an alkyl side chain on the phenyl ring to facilitate introduction of the radioactive atom. They thus provided an ^18F-alkyl-phenyl structure in phenylalanine and tyrosine, either ortho, meta or para. Examples are ^18F-CH[…] or ^18F-CH2-CH[…] and 2-^18F-CH[…] or 2-^18F-CH2-CH[…]. This reduces the labelling chemistry to direct conventional nucleophilic aliphatic substitution on the alkylphenylic side branch of the L-amino acid. In this approach cumbersome stereospecific synthesis is not required. The same strategy was followed for the radio-fluorination of the aliphatic amino acids leucine and isoleucine. […] Since aliphatic-substituted F hardly changes the pharmacology, it follows that these aliphatic amino acids are also suitable molecules for radio-fluorination.
# T1 sequence (Q63016 whole entry): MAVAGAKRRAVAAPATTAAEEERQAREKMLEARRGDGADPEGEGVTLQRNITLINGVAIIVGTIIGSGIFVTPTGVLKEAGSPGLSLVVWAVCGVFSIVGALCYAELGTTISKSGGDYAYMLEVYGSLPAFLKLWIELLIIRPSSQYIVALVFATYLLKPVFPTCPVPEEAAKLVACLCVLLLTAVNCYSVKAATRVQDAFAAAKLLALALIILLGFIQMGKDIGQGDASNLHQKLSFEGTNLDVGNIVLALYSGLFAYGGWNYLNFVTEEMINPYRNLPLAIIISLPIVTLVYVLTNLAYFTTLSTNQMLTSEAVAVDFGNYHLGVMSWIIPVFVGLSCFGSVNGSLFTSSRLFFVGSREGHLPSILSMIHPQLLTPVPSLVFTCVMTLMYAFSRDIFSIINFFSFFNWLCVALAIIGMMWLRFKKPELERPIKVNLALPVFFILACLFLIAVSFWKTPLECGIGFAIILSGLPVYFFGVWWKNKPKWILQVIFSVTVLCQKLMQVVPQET
# T1 sequence (Q794F9 whole entry partner): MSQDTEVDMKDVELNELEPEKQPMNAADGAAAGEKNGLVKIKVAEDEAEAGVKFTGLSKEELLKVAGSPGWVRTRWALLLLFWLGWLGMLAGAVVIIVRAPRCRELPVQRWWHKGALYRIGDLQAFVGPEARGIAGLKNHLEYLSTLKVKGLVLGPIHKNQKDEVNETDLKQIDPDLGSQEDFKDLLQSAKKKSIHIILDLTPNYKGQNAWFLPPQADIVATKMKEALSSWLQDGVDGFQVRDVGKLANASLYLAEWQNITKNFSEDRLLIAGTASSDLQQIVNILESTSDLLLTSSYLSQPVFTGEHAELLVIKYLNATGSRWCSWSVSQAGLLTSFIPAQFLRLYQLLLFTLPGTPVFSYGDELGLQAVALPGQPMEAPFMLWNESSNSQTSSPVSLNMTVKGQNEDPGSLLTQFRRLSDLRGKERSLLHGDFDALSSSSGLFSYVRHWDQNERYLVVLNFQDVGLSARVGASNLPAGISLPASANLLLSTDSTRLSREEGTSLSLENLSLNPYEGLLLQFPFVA
compound,measurement,setting,value
N[C@@H](Cc1ccccc1[123I])C(=O)O [2-^123-I-phenylalanine],activity in the kidneys relative to IMT,"[1]; rat, in vivo",10 times less
same,high brain uptake observed,"[1]; rat, in vivo",no
same,renal accumulation,"[1]; rat, in vivo",no renal accumulation
same,uptake in the tumours,"[1]; rat, in vivo",high uptake
N[C@@H](Cc1ccc(O)cc1[123I])C(=O)O [2-^123I-tyrosine],activity in the kidneys relative to IMT,[1]; RIM tumour-bearing rats,10 times less
same,high brain uptake observed,[1]; RIM tumour-bearing rats,no
same,renal accumulation,[1]; RIM tumour-bearing rats,no renal accumulation
same,uptake in the tumours,"[1]; RIM tumour-bearing rats, comparable with IMT",high uptake
N[C@@H](Cc1ccccc1C[18F])C(=O)O [L-2-18F-methyl-phenylalanine],accumulation in the kidneys or other organs (PET),R1M tumour,No accumulation
same,route of clearance (PET),R1M tumour,cleared through the kidneys to the bladder
same,uptake in the tumour and pancreas (PET),R1M tumour,high uptake
N[C@@H](Cc1ccccc1CF)C(=O)O [L-2-F-methyl-phenylalanine],Ki,"[2]; 15 minutes incubation, HEPES buffer pH 7.4, rat rhabdomyo-sarcoma cells",76 µM
same,type of inhibition of 3H-Phe/Phe uptake (Lineweaver-Burk plots),"[2]; R1M cells in vitro, FIG. 1",competitive
N[C@@H](Cc1ccccc1)C(=O)O [L-phenylalanine],Km,"[2]; same conditions: 15 minutes incubation, HEPES buffer pH 7.4, rat rhabdomyo-sarcoma cells",65 µM
CC(C)C[C@H](N)C(=O)O [^3H-leucine],uptake in R1M cells,R1M cells,comparable with 3H-Tyr and ^3H-Phe
^3H-isoleucine,uptake in R1M cells,R1M cells,comparable with 3H-Tyr and ^3H-Phe
